Patent US10377778B2, “Lead and thorium compounds” (Sciencons AS, priority 2017, dated 2019)

How the values were obtained:
[1] = Stability testing of ^212Pb-labeled ligands in vitro (TLC radiochemical purity in PBS and FBS); type: physicochemical; conditions: 37° C.
Experimental: Thin layer chromatography (TLC) was performed using chromatography strips (model #150-772, Biodex Medical Systems Inc, Shirley, N.Y., USA). A formulation buffer (FB) consisting of 7.5% human serum albumin and 5 mM EDTA in DPBS and adjusted to approximately pH 7 with NaOH was mixed with the antibody conjugates in ratio 2:1 for at least 5 minutes before application to the strips to determine free radionuclide. A small beaker with about 0.5 ml of 0.9% NaCl was used to place strips with a sample spot in. To the strip was typically added 1-4 μl of sample at approximately 10% above the bottom of the strip. After the solvent front had moved to about 20% from the top of the strip, the strip was cut in half and each half was placed in a 5 ml test tube for counting. In this system radiolabeled ligand stays at the bottom half while radionuclide complexed with EDTA migrates to the upper half. It was verified that free cations of both ^212Pb and ^177Lu would complex with EDTA and moved to the top.
TLC analyses were performed at 1 h, 4 h, 24 h and 48 h of incubation. […]

[2] = test system: C4-2 PSMA-positive xenografts; assay: Biodistribution of radiolabelled ligands (^224Ra/^212Pb solutions, ^177Lu) in nude mice with C4-2 xenografts
Experimental: Each group usually consisted of three mice. […] Approximately 16 kBq of ^224Ra/^212Pb was injected in each animal, i.e., approximately 0.2 nmol of ligand per mouse. Animals were given anaesthesia and sacrificed by cervical dislocation followed by dissection and harvesting of tissue-, blood- and urine samples. The samples were weighed and counted on a gamma counter.
Three mice in each group. […] The molar concentration was the same for both products, i.e., 12.5 nmol per MBq. Approximately 16 kBq of ^224Ra/^212Pb was injected in each animal, i.e., approximately 0.2 nmol of ligand per mouse. Animals were given anaesthesia and sacrificed by cervical dislocation followed by dissection and harvesting of tissue-, blood- and urine samples. The samples were weighed and counted on a gamma counter.
Methods: Tumor and kidney uptake of ^212Pb-labeled p-SCN-Bn-TCMC-PSMA ligand 1 and ^177Lu-labeled PSMA-617 was compared at 1 hours and 4 hours after administration of the products by intravenous injection into nude mice with C4-2 xenografts as described in Example 9.

PSMA-positive xenografts = assay: Biodistribution of single targeting solution (purified ^212Pb-ligand) in mice with PSMA-positive xenografts; type: in vivo
Experimental: Using a ^212Pb/^224Ra solution for reaction with p-SCN-Bn-TCMC-PSMA ligand 1 as described, purified ^212Pb-p-SCN-Bn-TCMC-PSMA ligand 1 was purified using a Sephadex G-10 gel filtration column and about 30 kBq and 300 ng of the purified radioligand product was injected per animal. […] The tumor-to-tissue ratios (Table 4) indicates suitability for radioligand targeting with ^212Pb.

[3] = 4 h after i.v. injection, ^224Ra/^212Pb solution

## NC(=O)CN1CCN(CC(N)=O)CCN(CC(N)=O)C(Cc2ccc(NC(=S)NCC3CCC(C(=O)NC(Cc4ccc5ccccc5c4)C(=O)NCCCCC(NC(=O)NC(CCC(=O)O)C(=O)O)C(=O)O)CC3)cc2)CN(CC(N)=O)CC1.[212Pb+2] (centres unmarked) [^212Pb-p-SCN-Bn-TCMC-PSMA ligand 1]
[1]; FBS, 1 h since start of incubation, in ^224Ra/^212Pb solution
  Radiochemical purity: 93.50%
[1]; FBS, 4 h
  Radiochemical purity: 94.18%
[1]; FBS, 24 h
  Radiochemical purity: 93.54%
[1]; FBS, 48 h
  Radiochemical purity: 90.81%
[1]; PBS, 1 h since start of incubation, in ^224Ra/^212Pb solution
  Radiochemical purity: 93.26%
[1]; PBS, 4 h
  Radiochemical purity: 95.04%
[1]; PBS, 24 h
  Radiochemical purity: 95.00%
[1]; PBS, 48 h
  Radiochemical purity: 95.11%
[2]; 1-hour point after administration
  Average tumor-to-kidney ratio: 0.40
[2]; 4-hour timepoint
  Tumor-to-kidney ratio: 1.7
[2]; [3]
  Uptake ratio to ^212Pb-PSMA-617, blood: 1.21
  Uptake ratio to ^212Pb-PSMA-617, kidneys: 0.20
  Uptake ratio to ^212Pb-PSMA-617, liver: 2.67
  Uptake ratio to ^212Pb-PSMA-617, spleen: 0.71
[2]; 4 h after i.v. injection, ^224Ra/^212Pb solution, about 0.2 nmol ligand per mouse
  Uptake ratio to ^212Pb-PSMA-617, tumor: 1.35
[2]; 4 hours after i.v. injection
  Kidney uptake (average): 8.1 % ID/g
  Tumor uptake (average): 13.9 % ID/g
PSMA-positive xenografts; 1 h
  Tumor/Femur ratio: 30.4
  Tumor/blood ratio: 14.9
  Tumor/kidneys ratio: 0.41
  Tumor/muscle ratio: 42.6
PSMA-positive xenografts; 2 h
  Tumor/Femur ratio: 39.7
  Tumor/blood ratio: 29.4
  Tumor/kidneys ratio: 0.62
  Tumor/muscle ratio: 72.1
PSMA-positive xenografts; 4 h
  Tumor/Femur ratio: 24.8
  Tumor/blood ratio: 30.7
  Tumor/kidneys ratio: 1.54
  Tumor/muscle ratio: 61.5
PSMA-positive xenografts; 8 h
  Tumor/Femur ratio: 19.8
  Tumor/blood ratio: 112.7
  Tumor/kidneys ratio: 3.60
  Tumor/muscle ratio: 366.2
PSMA-positive xenografts; 1 h post injection
  Biodistribution, Bladder: 36.86 % ID/g
  Biodistribution, Blood: 1.77 % ID/g
  Biodistribution, Brain: 0.61 % ID/g
  Biodistribution, Femur: 0.87 % ID/g
  Biodistribution, Heart: 0.78 % ID/g
  Biodistribution, Kidneys: 63.96 % ID/g
  Biodistribution, Large intestine: 0.25 % ID/g
  Biodistribution, Liver: 2.39 % ID/g
  Biodistribution, Lungs: 1.19 % ID/g
  Biodistribution, Muscle: 0.62 % ID/g
  Biodistribution, Prostate: 13.95 % ID/g
  Biodistribution, Salivary gland: 0.72 % ID/g
  Biodistribution, Skin: 1.70 % ID/g
  Biodistribution, Skull: 0.77 % ID/g
  Biodistribution, Small intestine: 0.34 % ID/g
  Biodistribution, Spleen: 1.24 % ID/g
  Biodistribution, Stomach: 0.16 % ID/g
  Biodistribution, Testes: 4.41 % ID/g
  Biodistribution, Tumor: 26.44 % ID/g
  Biodistribution, Urine: 253.36 % ID/g
PSMA-positive xenografts; 2 h post injection
  Biodistribution, Bladder: 6.85 % ID/g
  Biodistribution, Blood: 0.54 % ID/g
  Biodistribution, Brain: 0.04 % ID/g
  Biodistribution, Femur: 0.40 % ID/g
  Biodistribution, Heart: 0.20 % ID/g
  Biodistribution, Kidneys: 25.41 % ID/g
  Biodistribution, Large intestine: 0.39 % ID/g
  Biodistribution, Liver: 1.33 % ID/g
  Biodistribution, Lungs: 0.40 % ID/g
  Biodistribution, Muscle: 0.22 % ID/g
  Biodistribution, Prostate: 3.80 % ID/g
  Biodistribution, Salivary gland: 0.32 % ID/g
  Biodistribution, Skin: 0.47 % ID/g
  Biodistribution, Skull: 0.38 % ID/g
  Biodistribution, Small intestine: 0.23 % ID/g
  Biodistribution, Spleen: 0.44 % ID/g
  Biodistribution, Stomach: 0.22 % ID/g
  Biodistribution, Testes: 0.56 % ID/g
  Biodistribution, Tumor: 15.87 % ID/g
  Biodistribution, Urine: 250.85 % ID/g
PSMA-positive xenografts; 4 h post injection
  Biodistribution, Bladder: 3.53 % ID/g
  Biodistribution, Blood: 0.46 % ID/g
  Biodistribution, Brain: 0.07 % ID/g
  Biodistribution, Femur: 0.57 % ID/g
  Biodistribution, Heart: 0.52 % ID/g
  Biodistribution, Kidneys: 9.19 % ID/g
  Biodistribution, Large intestine: 0.18 % ID/g
  Biodistribution, Liver: 1.55 % ID/g
  Biodistribution, Lungs: 0.75 % ID/g
  Biodistribution, Muscle: 0.23 % ID/g
  Biodistribution, Prostate: 1.48 % ID/g
  Biodistribution, Salivary gland: 0.34 % ID/g
  Biodistribution, Skin: 0.42 % ID/g
  Biodistribution, Skull: 0.37 % ID/g
  Biodistribution, Small intestine: 0.30 % ID/g
  Biodistribution, Spleen: 0.54 % ID/g
  Biodistribution, Stomach: 0.10 % ID/g
  Biodistribution, Testes: 0.38 % ID/g
  Biodistribution, Tumor: 14.14 % ID/g
  Biodistribution, Urine: 32.12 % ID/g
PSMA-positive xenografts; 8 h post injection
  Biodistribution, Bladder: 0.26 % ID/g
  Biodistribution, Blood: 0.13 % ID/g
  Biodistribution, Brain: 0.02 % ID/g
  Biodistribution, Femur: 0.74 % ID/g
  Biodistribution, Heart: 0.09 % ID/g
  Biodistribution, Kidneys: 4.07 % ID/g
  Biodistribution, Large intestine: 0.17 % ID/g
  Biodistribution, Liver: 1.25 % ID/g
  Biodistribution, Lungs: 0.17 % ID/g
  Biodistribution, Muscle: 0.04 % ID/g
  Biodistribution, Prostate: −0.10 % ID/g
  Biodistribution, Salivary gland: 0.15 % ID/g
  Biodistribution, Skin: 0.23 % ID/g
  Biodistribution, Skull: 0.63 % ID/g
  Biodistribution, Small intestine: 0.08 % ID/g
  Biodistribution, Spleen: 0.36 % ID/g
  Biodistribution, Stomach: 0.09 % ID/g
  Biodistribution, Testes: 0.12 % ID/g
  Biodistribution, Tumor: 14.65 % ID/g
  Biodistribution, Urine: 6.76 % ID/g
